Where a SMILES comes first, the peptide text is derived from it.
Legend:
amylin receptors = biological target: T1, amylin receptors (Rattus norvegicus, UniProt P32214); assay: Receptor binding assay (125I-rat amylin competition, rat basal forebrain membranes); details: competition with 125I-rat amylin at 12-16 pM
T1 construct: This basal forebrain tissue, containing the nucleus accumbens and surrounding regions, was weighed and homogenized; from tissue; host or cells: rat basal forebrain (nucleus accumbens and surrounding regions) membranes
T1 sequence (P32214 25-516): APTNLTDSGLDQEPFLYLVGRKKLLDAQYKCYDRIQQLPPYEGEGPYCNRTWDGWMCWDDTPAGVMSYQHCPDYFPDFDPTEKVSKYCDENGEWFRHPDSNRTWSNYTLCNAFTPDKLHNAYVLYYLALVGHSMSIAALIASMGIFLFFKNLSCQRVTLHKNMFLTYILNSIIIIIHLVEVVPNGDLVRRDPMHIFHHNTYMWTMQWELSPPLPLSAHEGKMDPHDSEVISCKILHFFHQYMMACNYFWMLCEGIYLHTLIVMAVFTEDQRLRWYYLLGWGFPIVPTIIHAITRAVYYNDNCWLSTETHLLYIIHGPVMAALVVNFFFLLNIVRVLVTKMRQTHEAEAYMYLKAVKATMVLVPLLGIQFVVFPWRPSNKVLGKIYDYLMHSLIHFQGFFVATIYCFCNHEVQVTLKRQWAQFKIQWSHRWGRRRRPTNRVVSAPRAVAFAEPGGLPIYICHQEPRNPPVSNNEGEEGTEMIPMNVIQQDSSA
T1 sequence (Q9JJ74 27-148 partner): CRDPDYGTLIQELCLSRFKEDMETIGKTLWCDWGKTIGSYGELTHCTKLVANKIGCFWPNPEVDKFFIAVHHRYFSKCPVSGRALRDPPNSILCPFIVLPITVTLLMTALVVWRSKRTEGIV
From the text: Unlabeled peptides were obtained from BACHEM Inc. (Torrance, Calif.) and Peninsula Laboratories (Belmont, Calif.).
Male Sprague-Dawley rats (200-250) grams were sacrificed by decapitation. Brains were removed to cold phosphate-buffered saline (PBS). From the ventral surface, cuts were made rostral to the hypothalamus, bounded laterally by the olfactory tracts and extending at a 45Ε angle medially from these tracts. This basal forebrain tissue, containing the nucleus accumbens and surrounding regions, was weighed and homogenized in ice-cold 20 mM HEPES buffer (20 mM HEPES acid, pH adjusted to 7.4 with NaOH at 23ΕC). […] The final membrane pellet was resuspended in 20 mM HEPES buffer containing 0.2 mM phenylmethylsulfonyl fluoride (PMSF).
Solutions were incubated for 60 minutes at 2ΕC. […] Filters were washed immediately before filtration with 5 ml cold PBS, and immediately after filtration with 15 ml cold PBS.

Solubility = format: physicochemical; details: where a comparison is made, compared with human amylin
From the text: (§1) This may be due in some measure, although this is not known, to the different aggregation properties of the amylins from different species.
(§2) The agonist analogues of amylin of this invention are useful in view of their pharmacological properties. […] In addition to the description of compounds pursuant to FIG. 3, certain preferred compounds are set forth in Table I. The preferred compounds des-^1Lys-h-amylin [SEQ. ID. NO. 7], ^28Pro-h-amylin [SEQ. ID. NO. 8], ^25, 28, 29Pro-h-amylin [SEQ. ID. NO. 9], ^18Arg^25, 28Pro-h-amylin [SEQ. ID. NO. 10], and des-^1Lys^18Arg^25, 28Pro-h-amylin [SEQ. ID. NO. […] These preferred compounds include ^25Pro^26Val^28, 29Pro-h-amylin [SEQ. ID. NO. 12], ^25, 28, 29Pro-h-amylin, and ^18Arg^25, 28Pro-h-amylin.

Stability in solution = format: physicochemical; details: where a comparison is made, compared with human amylin
From the text: as §1, §2

Compound	IC50 (amylin receptors)	solubility (Solubility)	stability in solution (Stability in solution)
CC[C@H](C)[C@H](NC(=O)[C@H](C)NC(=O)CNC(=O)[C@H](Cc1ccccc1)NC(=O)[C@H](CC(N)=O)NC(=O)[C@H](CC(N)=O)NC(=O)[C@H](CO)NC(=O)[C@H](CO)NC(=O)[C@H](Cc1c[nH]cn1)NC(=O)[C@@H](NC(=O)[C@H](CC(C)C)NC(=O)[C@H](Cc1ccccc1)NC(=O)[C@H](CC(N)=O)NC(=O)[C@H](C)NC(=O)[C@H](CC(C)C)NC(=O)[C@H](CCCNC(=N)N)NC(=O)[C@H](CCC(N)=O)NC(=O)[C@@H](NC(=O)[C@H](C)NC(=O)[C@@H]1CCCCNC(=O)C[C@H](NC(=O)[C@@H](N)CCCCN)C(=O)N[C@@H](CC(N)=O)C(=O)N[C@@H]([C@@H](C)O)C(=O)N[C@@H](C)C(=O)N[C@@H]([C@@H](C)O)C(=O)N1)[C@@H](C)O)C(C)C)C(=O)N[C@@H](CC(C)C)C(=O)N[C@@H](CO)C(=O)N[C@@H](CO)C(=O)N[C@H](C(=O)N[C@@H](CC(N)=O)C(=O)N[C@H](C(=O)NCC(=O)N[C@@H](CO)C(=O)N[C@@H](CC(N)=O)C(=O)N[C@H](C(=O)N[C@@H](Cc1ccc(O)cc1)C(N)=O)[C@@H](C)O)C(C)C)[C@@H](C)O [Example 3, ^2, 7Cyclo-[^2Asp, ^7Lys]-h-Amylin] (HELM PEPTIDE1{K.D.N.T.A.T.K.A.T.Q.R.L.A.N.F.L.V.H.S.S.N.N.F.G.A.I.L.S.S.T.N.V.G.S.N.T.Y.[am]}$PEPTIDE1,PEPTIDE1,2:R3-7:R3$$$V2.0)	0.31 nM	–	–
CC[C@H](C)[C@H](NC(=O)[C@H](C)NC(=O)CNC(=O)[C@H](Cc1ccccc1)NC(=O)[C@H](CC(N)=O)NC(=O)[C@H](CC(N)=O)NC(=O)[C@H](CO)NC(=O)[C@H](CO)NC(=O)[C@H](Cc1c[nH]cn1)NC(=O)[C@@H](NC(=O)[C@H](CC(C)C)NC(=O)[C@H](Cc1ccccc1)NC(=O)[C@H](CC(N)=O)NC(=O)[C@H](C)NC(=O)[C@H](CC(C)C)NC(=O)[C@H](CCCNC(=N)N)NC(=O)[C@H](CCC(N)=O)NC(=O)[C@@H](NC(=O)[C@H](C)NC(=O)[C@@H]1CSSC[C@H](NC(=O)[C@@H](N)CCCCN)C(=O)N[C@@H](CC(N)=O)C(=O)N[C@@H]([C@@H](C)O)C(=O)N[C@@H](C)C(=O)N[C@@H]([C@@H](C)O)C(=O)N1)[C@@H](C)O)C(C)C)C(=O)N[C@@H](CC(C)C)C(=O)N[C@@H](CO)C(=O)N[C@@H](CO)C(=O)N[C@H](C(=O)N[C@@H](CC(N)=O)C(=O)N[C@H](C(=O)NCC(=O)N[C@@H](CO)C(=O)N[C@@H](CC(N)=O)C(=O)N[C@H](C(=O)N[C@@H](Cc1ccc(O)cc1)C(N)=O)[C@@H](C)O)C(C)C)[C@@H](C)O [human amylin]	–	limited solubility	limited stability
rat amylin	–	higher	higher
